# From PubChem BioAssay (NCI)
# “And” between values parts separate entries of the source, which are not always exact repeats. Equal entries are not always repeated.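 Assay format: 96-well plates, 48-hour exposure. GI50 marks 50% less growth. TGI: total growth inhibition.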
# Assays:
# Assay in all cases: NCI tumour cell line growth inhibition, 48 h
# UACC-257 melanoma = system: UACC-257 melanoma
# SN12C renal = system: SN12C renal
# K-562 leukemia = system: K-562 leukemia
# CCRF-CEM leukemia = system: CCRF-CEM leukemia
# SK-MEL-2 melanoma = system: SK-MEL-2 melanoma
# NCI-H460 lung = system: NCI-H460 lung
# OVCAR-5 ovarian = system: OVCAR-5 ovarian
# SNB-75 CNS = system: SNB-75 CNS
# RXF 393 renal = system: RXF 393 renal
# HOP-62 NSCLC = system: HOP-62 NSCLC
# HCC-2998 colon = system: HCC-2998 colon
# EKVX NSCLC = system: EKVX NSCLC
# A549 NSCLC = system: A549 NSCLC
# MALME-3M melanoma = system: MALME-3M melanoma
# NCI-H23 lung = system: NCI-H23 lung
# SF-295 CNS = system: SF-295 CNS
# SF-539 CNS = system: SF-539 CNS
# P388/ADR leukemia = system: P388/ADR leukemia
# XF 498 CNS = system: XF 498 CNS
# KM20L2 colon = system: KM20L2 colon
# DMS 273 small cell lung = system: DMS 273 small cell lung
# OVCAR-4 ovarian = system: OVCAR-4 ovarian
# SK-MEL-5 melanoma = system: SK-MEL-5 melanoma
# SNB-78 CNS = system: SNB-78 CNS
# MOLT-4 leukemia = system: MOLT-4 leukemia
# OVCAR-3 ovarian = system: OVCAR-3 ovarian
# IGROV1 ovarian = system: IGROV1 ovarian
# NCI/ADR-RES ovarian = system: NCI/ADR-RES ovarian
# HCT-116 colon = system: HCT-116 colon
# A498 renal = system: A498 renal
# SK-OV-3 ovarian = system: SK-OV-3 ovarian
# HT29 colon = system: HT29 colon
# KM12 colon = system: KM12 colon
# UO-31 renal = system: UO-31 renal
# CAKI-1 renal = system: CAKI-1 renal
# DMS 114 small cell lung = system: DMS 114 small cell lung
# SN12K1 renal = system: SN12K1 renal
# M19-MEL melanoma = system: M19-MEL melanoma
# SNB-19 CNS = system: SNB-19 CNS
# HL-60(TB) leukemia = system: HL-60(TB) leukemia
# DLD-1 colon = system: DLD-1 colon
# HCT-15 colon = system: HCT-15 colon
# LOX IMVI melanoma = system: LOX IMVI melanoma
# SW-620 colon = system: SW-620 colon
# P388 leukemia = system: P388 leukemia
# SF-268 CNS = system: SF-268 CNS
# U251 CNS = system: U251 CNS
# UACC-62 melanoma = system: UACC-62 melanoma
# HOP-18 NSCLC = system: HOP-18 NSCLC
# HOP-92 NSCLC = system: HOP-92 NSCLC
# COLO 205 colon = system: COLO 205 colon
# MCF7 breast = system: MCF7 breast
# OVCAR-8 ovarian = system: OVCAR-8 ovarian
# NCI-H522 lung = system: NCI-H522 lung
# SK-MEL-28 melanoma = system: SK-MEL-28 melanoma
# NCI-H226 lung = system: NCI-H226 lung
# RXF-631 renal = system: RXF-631 renal
# HS 578T breast = system: HS 578T breast
# SR leukemia = system: SR leukemia
# ACHN renal = system: ACHN renal
# DU-145 prostate = system: DU-145 prostate
# MDA-N = system: MDA-N
# LXFL 529 NSCLC = system: LXFL 529 NSCLC
compound,measurement,setting,value
c1ccc2c(c1)SCCc1cn[nH]c1-2,TGI,UACC-257 melanoma,> 100 µM
same,TGI,SN12C renal,> 100 µM
same,TGI,K-562 leukemia,> 100 µM
same,TGI,CCRF-CEM leukemia,> 100 µM
same,TGI,SK-MEL-2 melanoma,> 100 µM
same,TGI,NCI-H460 lung,> 100 µM
same,TGI,OVCAR-5 ovarian,> 100 µM
same,TGI,SNB-75 CNS,> 100 µM
same,TGI,RXF 393 renal,> 100 µM
same,TGI,HOP-62 NSCLC,> 100 µM
same,TGI,HCC-2998 colon,> 100 µM
same,TGI,EKVX NSCLC,> 100 µM
same,TGI,A549 NSCLC,> 100 µM
same,TGI,MALME-3M melanoma,> 100 µM
same,TGI,NCI-H23 lung,> 100 µM
same,TGI,SF-295 CNS,> 100 µM
same,TGI,SF-539 CNS,> 100 µM
same,TGI,P388/ADR leukemia,> 100 µM
same,TGI,XF 498 CNS,> 100 µM
same,TGI,KM20L2 colon,> 100 µM
same,TGI,DMS 273 small cell lung,> 100 µM
same,TGI,OVCAR-4 ovarian,> 100 µM
same,TGI,SK-MEL-5 melanoma,> 100 µM
same,TGI,SNB-78 CNS,> 100 µM
same,TGI,MOLT-4 leukemia,> 100 µM
same,TGI,OVCAR-3 ovarian,> 100 µM
same,TGI,IGROV1 ovarian,> 100 µM
same,TGI,NCI/ADR-RES ovarian,> 100 µM
same,TGI,HCT-116 colon,> 100 µM
same,TGI,A498 renal,> 100 µM
same,TGI,SK-OV-3 ovarian,> 100 µM
same,TGI,HT29 colon,> 100 µM
same,TGI,KM12 colon,> 100 µM
same,TGI,UO-31 renal,> 100 µM
same,TGI,CAKI-1 renal,> 100 µM
same,TGI,DMS 114 small cell lung,> 100 µM
same,TGI,SN12K1 renal,> 100 µM
same,TGI,M19-MEL melanoma,> 100 µM
same,TGI,SNB-19 CNS,> 100 µM
same,TGI,HL-60(TB) leukemia,> 100 µM
same,TGI,DLD-1 colon,> 100 µM
same,TGI,HCT-15 colon,> 100 µM
same,TGI,LOX IMVI melanoma,> 100 µM
same,TGI,SW-620 colon,> 100 µM
same,TGI,P388 leukemia,> 100 µM
same,TGI,SF-268 CNS,> 100 µM
same,TGI,U251 CNS,> 100 µM
same,TGI,UACC-62 melanoma,> 100 µM
same,TGI,HOP-18 NSCLC,> 100 µM
same,TGI,HOP-92 NSCLC,> 100 µM
same,TGI,COLO 205 colon,> 100 µM
same,TGI,MCF7 breast,> 100 µM
same,TGI,OVCAR-8 ovarian,> 100 µM
same,TGI,NCI-H522 lung,> 100 µM
same,TGI,SK-MEL-28 melanoma,> 100 µM
same,TGI,NCI-H226 lung,> 100 µM
CC[C@]1(O)C[C@H]2CN(CCc3c([nH]c4ccccc34)[C@@](C(=O)OC)(c3cc4c(cc3OC)N(C)[C@H]3[C@@](O)(C(=O)OC)[C@H](OC(C)=O)[C@]5(CC)C=CCN6CC[C@]43[C@@H]65)C2)C1,TGI,UACC-257 melanoma,1.89 µM and 2.5 µM and 16.1 µM
same,TGI,RXF-631 renal,1.03 µM
same,TGI,HS 578T breast,0.24 µM and 1.37 µM
same,GI50,SR leukemia,< 2.5 pM
same,TGI,SNB-75 CNS,0.025 µM and 0.0807 µM
same,GI50,RXF 393 renal,0.00135 µM
same,GI50,ACHN renal,0.0527 nM
same,TGI,P388/ADR leukemia,0.931 µM
same,TGI,XF 498 CNS,0.0333 µM
same,GI50,KM20L2 colon,0.025 nM
same,TGI,KM20L2 colon,0.00183 µM
same,TGI,DMS 273 small cell lung,0.123 µM
same,GI50,DU-145 prostate,7.48 pM
same,TGI,SNB-78 CNS,1.7 µM
same,TGI,MDA-N,0.00025 µM and 0.000771 µM
same,TGI,LXFL 529 NSCLC,1.06 µM
same,TGI,HT29 colon,0.124 µM
same,TGI,DMS 114 small cell lung,0.00581 µM
same,TGI,SN12K1 renal,0.0027 µM
same,TGI,DLD-1 colon,2.5 µM
same,TGI,P388 leukemia,0.139 µM
same,TGI,HOP-18 NSCLC,1.51 µM
same,GI50,SK-MEL-28 melanoma,7.41 pM
